Where “and” joins values, the source holds several entries; their conditions need not be identical. Identical values can stand only once.

T1 sequence (P34969 whole entry): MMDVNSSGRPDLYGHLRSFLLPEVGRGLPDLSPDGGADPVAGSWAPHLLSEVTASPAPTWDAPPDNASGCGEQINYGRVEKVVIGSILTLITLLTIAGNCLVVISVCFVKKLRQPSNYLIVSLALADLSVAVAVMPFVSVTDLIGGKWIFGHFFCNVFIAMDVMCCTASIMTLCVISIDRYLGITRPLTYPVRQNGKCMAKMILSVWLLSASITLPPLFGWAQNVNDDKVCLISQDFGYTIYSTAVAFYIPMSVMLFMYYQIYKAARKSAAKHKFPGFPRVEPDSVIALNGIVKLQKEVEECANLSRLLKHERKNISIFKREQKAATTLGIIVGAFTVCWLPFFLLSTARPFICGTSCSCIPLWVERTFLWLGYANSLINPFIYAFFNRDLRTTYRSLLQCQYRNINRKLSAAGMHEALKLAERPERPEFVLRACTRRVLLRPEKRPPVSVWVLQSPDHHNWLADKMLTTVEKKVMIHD

The assay addresses T1, human 5-HT7 receptor (Homo sapiens, UniProt P34969).
T1 construct: expressed in transfected cells; host or cells: CHO cells
The experiment in a line: 5-HT7 Receptor Binding Assay. As to conditions: membranes of CHO cells expressing human 5-HT7 receptor; 1 nM 3H-5-carboxamidotryptamine; 25° C., 60 minutes. As for the experimental part:
5-HT7 Receptor Binding Assay
Membranes are prepared for binding using the human 5-HT7 receptor expressed in CHO cells. Cells are collected and ruptured using a dounce homogenizer. The cells are spun at 18000× g for 10 minutes and the pellet is resuspended in assay buffer, frozen in liquid nitrogen and kept at −80° C. until the day of the assay.
A total of 30 ug protein is used per well. The assay is carried out in 96-deep-well plates. The assay buffer is 50 mM HEPES. The membrane preparation is incubated at 25° C. for 60 minutes with 0.1 nM to 1000 nM test compound and 1 nM ^3H-5-carboxamidotryptamine. 10 uM serotonin is used as blocking agent to determine non-specific binding. The reaction is terminated by the addition of 1 ml of ice cold 5OmM HEPES buffer and rapid filtration through a Brandel Cell Harvester using Whatman GF/B filters. The filter pads are counted in an LKB Trilux liquid scintillation counter. IC50 values are determined using non-linear regression by Exel-fit.
For the compound `CC[C@@H](Nc1ccnc(NCCc2ccccc2)n1)c1ccccc1` [N^2-(2-Phenylethyl)-N^4-[(1R)-1-phenylpropyl]pyrimidine-2,4-diamine], the IC50 – broadly, the concentration that inhibits the measured activity by half – lay in the range of 51 to 100 nM.
The same measure for `C[C@H](Nc1nc(N)nc(NCCc2ccc(Cl)c(Cl)c2)n1)c1ccccc1` [Compound 71, N^2-[2-(3,4-Dichlorophenyl)ethyl]-N^4-[(1S)-1-phenylethyl]-1,3,5-triazine-2,4,6-triamine]: not above 50 nM; for `c1ccc(OCCNc2nccc(NCc3cccc4c3OCO4)n2)cc1` [N^4-(4-Benzodioxolylmethyl)-N^2-(2-phenoxyethyl)pyrimidine-2,4-diamine]: not above 50 nM.
For the compound `CC(Nc1nc(N)nc(NC[C@@H]2C[C@H]2c2ccccc2F)n1)c1ccccc1` (mixture of isomers) [(±)-trans-N-[2-(2-Fluoro-phenyl)-cyclopropylmethyl]-N′-(1-phenyl-ethyl)-[1,3,5]triazine-2,4,6-triamine], the IC50 is ≤ 100 nM and > 50 nM.
In the case of `C[C@H](Nc1nc(N)nc(NCCc2ccc(Cl)cc2)n1)c1ccc([N+](=O)[O-])cc1` [Compound 59, N^2-[2-(4-Chlorophenyl)ethyl]-N^4-[(1S)-1-(4-nitrophenyl)ethyl]-1,3,5-triazine-2,4,6-triamine], the IC50 lay within 51 to 100 nM.
For `CC[C@H](Nc1nc(N)nc(NCCc2ccc(F)cc2)n1)c1ccccc1` [Compound 67, N^2-[2-(4-Fluorophenyl)ethyl]-N^4-[(1S)-1-phenylpropyl]-1,3,5-triazine-2,4,6-triamine] the value was not above 50 nM; for `COc1cccc(CNc2ccnc(NCCc3ccccc3)n2)c1` [N^4-(3-Methoxyphenylmethyl)-N^2-(2-phenylethyl)pyrimidine-2,4-diamine], not above 50 nM.
Turning to `COc1ccccc1CNc1ccnc(NCCc2ccccc2)n1` [N^4-(2-Methoxyphenylmethyl)-N^2-(2-phenylethyl)pyrimidine-2,4-diamine], the IC50 is not above 50 nM.
The same measure for `CC[C@H](Nc1nc(N)nc(NCC(C)c2ccccc2)n1)c1ccccc1` (stereo partly drawn) [Compound 35, N^2-[(1S)-1-Phenylpropyl]-N^4-(2-phenylpropyl)-1,3,5-triazine-2,4,6-triamine]: 101 to 200 nM; for `CC[C@H](Nc1nc(N)nc(NCCc2cccc(OC)c2)n1)c1ccccc1` [Compound 52, N^2-[2-(3-Methoxyphenyl)ethyl]-N^4-[(1S)-1-phenylpropyl]-1,3,5-triazine-2,4,6-triamine]: 51 to 100 nM; for `Clc1cccc(CNc2ccnc(NCCc3ccccc3)n2)c1` [N^4-(3-Chlorophenylmethyl)-N^2-(2-phenylethyl)pyrimidine-2,4-diamine]: 101 to 200 nM.
Regarding `Cc1ccc([C@@H](C)Nc2ccnc(NCCOc3ccccc3)n2)cc1` [N^4-[(1R)-1-(4-Methylphenyl)ethyl]-N^2-(2-phenoxyethyl)pyrimidine-2,4-diamine], the IC50 lay within 51 to 100 nM.
For `c1ccc(OCCNc2nccc(NCc3ccncc3)n2)cc1` [Compound 19, N^2-(2-Phenoxyethyl)-N^4-(4-pyridinylmethyl)pyrimidine-2,4-diamine] the value was not above 50 nM; for `COc1cccc(CCNc2nc(N)nc(N[C@@H](C)c3ccccc3)n2)c1` [Compound 54, N^2-[2-(3-Methoxyphenyl)ethyl]-N^4-[(1S)-1-phenylethyl]-1,3,5-triazine-2,4,6-triamine], 51 to 100 nM; for `CC(Nc1ccnc(NCCc2ccccc2)n1)c1ccc(Cl)cc1` (centres unmarked) [N^4-[1-(4-Chlorophenyl)ethyl]-N^2-(2-phenylethyl)pyrimidine-2,4-diamine], not above 50 nM.
`c1ccc(CNc2ccnc(NCCOc3ccccc3)n2)cc1` [N^2-(2-Phenoxyethyl)-N^4-(phenylmethyl)pyrimidine-2,4-diamine] had an IC50 not above 50 nM.
The same measure for `COc1cc(CCNc2nc(C)cc(N[C@@H](C)c3ccccc3)n2)cc(OC)c1` [N^2-[2-(3,5-Dimethoxyphenyl)ethyl]-6-methyl-N^4-[(1S)-1-phenylethyl]pyrimidine-2,4-diamine]: 51 to 100 nM.
